Here are results for six molecules from patent publication US20180280377A1, “Imidazo[4,5-c]quinolin-2-one Compounds and Their Use in Treating Cancer” (ASTRAZENECA AB, priority 2015, published 2018).

Structures are written as SMILES.

Holding throughout (format): cell-based
Assay [1] concerns the target T1, ATM (Homo sapiens, UniProt Q13315).
T1 construct: endogenous in cells; host or cells: HT29 cells (ECACC #85061109)
The assay is described as follows: ATM cellular potency assay (pATM Ser1981 in irradiated HT29 cells). The note with it: 1 h compound, X-ray irradiation, pATM (Ser1981); Table 2; read-out: Assay a) ATM Cell IC50. Here is the method:
(§1) The following assays were used to measure the effects of the compounds of the present invention: a) ATM cellular potency assay; b) PI3K cellular potency assay; c) mTOR cellular potency assay; d) ATR cellular potency assay. During the description of the assays, generally: • i. […] IC50 values were calculated using a smart fitting model in Genedata.
Most ATM molecules in the cell are rapidly phosphorylated on this site after doses of radiation as low as 0.5 Gy, and binding of a phosphospecific antibody is detectable after the introduction of only a few DNA double-strand breaks in the cell.
The rationale of the pATM assay is to identify inhibitors of ATM in cells. HT29 cells are incubated with test compounds for 1 h prior to X-ray-irradiation. 1 h later the cells are fixed and stained for pATM (Ser1981). The fluorescence is read on the arrayscan imaging platform.
The following morning compounds of Formula (I) in 100% DMSO were added to assay plates by acoustic dispensing. After 1 h incubation at 37° C. and 5% CO2, plates (up to 6 at a time) were irradiated using the X-RAD 320 instrument (PXi) with equivalent to 600 cGy. Plates were returned to the incubator for a further 1 h. Then cells were fixed by adding 20 μl of 3.7% formaldehyde in PBS solution and incubating for 20 minutes at r.t. before being washed with 50μl/well PBS, using a Biotek EL405 plate washer. Then 20 μl of 0.1% Triton X100 in PBS was added and incubated for 20 minutes at r.t., to permeabalise cells. Then the plates were washed once with 50 μl/well PBS, using a Biotek EL405 plate washer.
After 1 h incubation at r.t., the plates were washed three times with 50 μl/well PBS, using a Biotek EL405 plate washer, and plates were sealed and kept in PBS at 4° C. until read. Plates were read using an ArrayScan VTI instrument, using an XF53 filter with 10× objective.

The target of assay [2] is PI3Kα (Homo sapiens, UniProt P42336). The assay is described as follows: PI3K cellular potency assay (phospho-Akt T308 in BT474 cells, ELISA). The conditions noted are these: 2 h, phospho-Akt (T308); Table 2; read-out: Assay c) PI3Kα Cell IC50. Here is the method:
as §1
This assay was used to measure PI3K-α inhibition in cells. PDK1 was identified as the upstream activation loop kinase of protein kinase B (Akt1), which is essential for the activation of PKB. Activation of the lipid kinase phosphoinositide 3 kinase (PI3K) is critical for the activation of PKB by PDK1.
Following ligand stimulation of receptor tyrosine kinases, PI3K is activated, which converts PIP2 to PIP3, which is bound by the PH domain of PDK1 resulting in recruitment of PDK1 to the plasma membrane where it phosphorylates AKT at Thr308 in the activation loop.
The aim of this cell-based mode of action assay is to identify compounds that inhibit PDK activity or recruitment of PDK1 to membrane by inhibiting PI3K activity. Phosphorylation of phospho-Akt (T308) in BT474c cells following treatment with compounds for 2 h is a direct measure of PDK1 and indirect measure of PI3K activity.
The following morning compounds in 100% DMSO were added to assay plates by acoustic dispensing.
Plates were incubated over night at 4° C. The next day the plates were washed with PBS buffer containing 0.05% Tween 20 and further incubated with a mouse monoclonal anti-phospho AKT T308 for 2 h. Plates were washed again as above before addition of a horse anti-mouse-HRP conjugated secondary antibody. […] The developed fluorescent product was stopped after 60 minutes by addition of Stop solution to the wells.

Assay [3] has as its target T2, ATR (Homo sapiens, UniProt Q13535).
T2 construct: endogenous in cells; host or cells: HT29 cells (ECACC #85061109)
The assay is described as follows: ATR cellular potency assay (pChk1 Ser345 in HT29 cells after 4NQO). The note with it: pChk1 (Ser 345); Table 2; read-out: Assay b) ATR Cell IC50. Here is the method: as §1
ATR is a PI3-kinase-related kinase which phosphorylates multiple substrates on serine or threonine residues in response to DNA damage during or replication blocks. Chk1, a downstream protein kinase of ATR, plays a key role in DNA damage checkpoint control. Activation of Chk1 involves phosphorylation of Ser317 and Ser345 (the latter regarded as the preferential target for phosphorylation/activation by ATR).
The following morning compound of Formula (I) in 100% DMSO were added to assay plates by acoustic dispensing. After 1 h incubation at 37° C. and 5% CO2, 40 nl of 3 mM 4NQO in 100% DMSO was added to all wells by acoustic dispensing, except minimum control wells which were left untreated with 4NQO to generate a null response control. Plates were returned to the incubator for a further 1 h. Then cells were fixed by adding 20 μl of 3.7% formaldehyde in PBS solution and incubating for 20 mins at r.t. Then […] of 0.1% Triton X100 in PBS was added and incubated for 10 minutes at r.t., to permeabalise cells. Then the plates were washed once with […] PBS, using a Biotek EL405 plate washer.
After 2 h incubation at r.t., the plates were washed three times with […] PBS, using a Biotek EL405 plate washer, and plates were then sealed with black plate seals until read. Plates were read using an ArrayScan VTI instrument, using an XF53 filter with 10× objective.

Assay [4] has as its target T3, mTOR (Homo sapiens, UniProt P42345).
T3 construct: phosphorylation of the Akt protein at Ser473 (AKT lies downstream of PI3Kα in the signal transduction pathway) in the MDA-MB-468 cells; endogenous in cells; host or cells: MDA-MB-468 cells (ATCC HTB 132)
Nature of the assay: mTOR cellular potency assay (phospho-AKT Ser473 in MDA-MB-468 cells). The conditions noted are these: MDA-MB-468 cells, 2 h, phospho-AKT Ser473; Table 2; read-out: Assay d) mTOR Cell IC50. The text has this:
The following assays were used to measure the effects of the compounds of the present invention: a) ATM cellular potency assay; b) PI3K cellular potency assay; c) mTOR cellular potency assay; d) ATR cellular potency assay. During the description of the assays, generally: • i. The following abbreviations have been used: 4NQO=4-Nitroquinoline N-oxide; Ab=Antibody; BSA=Bovine Serum Albumin; CO2=Carbon Dioxide; DMEM=Dulbecco's Modified Eagle Medium; DMSO=Dimethyl Sulphoxide; EDTA=Ethylenediaminetetraacetic Acid; EGTA=Ethylene Glycol Tetraacetic Acid; ELISA=Enzyme-linked Immunosorbent Assay; EMEM=Eagle's Minimal Essential Medium; FBS=Foetal Bovine Serum; h=H(s); HRP=Horseradish Peroxidase; i.p.=intraperitoneal; PBS=Phosphate buffered saline; PBST=Phosphate buffered saline/Tween; TRIS=Tris(Hydroxymethyl)aminomethane; MTS reagent: [3-(4,5-dimethylthiazol-2-yl)-5-(3-carboxymethoxyphenyl)-2-(4-sulfophenyl)-2H-tetrazolium, inner salt, and an electron coupling reagent (phenazine methosulfate) PMS; s.c. sub-cutaneously. • ii. IC50 values were calculated using a smart fitting model in Genedata.
This assay was used to measure mTOR inhibition in cells. The aim of the phospho-AKT cell based mechanism of action assay using the Acumen Explorer is to identify inhibitors of either PI3Kα or mTOR-Rictor (Rapamycin insensitive companion of mTOR). This is measured by any decrease in the phosphorylation of the Akt protein at Ser473 (AKT lies downstream of PI3Kα in the signal transduction pathway) in the MDA-MB-468 cells following treatment with compound.
MDA-MB-468 cells (human breast adenocarcinoma #ATCC HTB 132) were seeded at 1500 cells/well in 40 μl of DMEM containing 10% FBS and 1% glutamine into Greiner 384 well black flat-bottomed plates. Cell plates were incubated for 18 h in a 37° C. incubator before dosing with compounds of Formula (I) in 100% DMSO using acoustic dispensing. Compounds were dosed in a 12 point concentration range into a randomised plate map. Control wells were generated either by dosing of 100% DMSO (max signal) or addition of a reference compound (a PI3K-62 inhibitor) that completely eliminated the pAKT signal (min control). Plates were incubated at 37° C. for 2 h; cells were then fixed by the addition of […] of a 3.7% formaldehyde solution. After 30 minutes the plates were washed with PBS using a Tecan PW384 plate washer. Wells were blocked and cells permeabilised with the addition of 40 μl of PBS containing 0.5% Tween20 and 1% Marvel™ (dried milk powder) and incubated for 60 minutes at r.t. The plates were washed with PBS containing 0.5% (v/v) Tween20 and 20 μl rabbit anti-phospho AKT Ser473 (Cell Signalling Technologies, #3787) in same PBS-Tween+1% MarvelTM was added and incubated overnight at 4° C.
Plates were washed 3 times with PBS+0.05% Tween 20 using a Tecan PW384. 20 μl of secondary antibody Alexa Fluor 488 anti-Rabbit (Molecular Probes, # A11008) diluted in PBS+0.05% Tween20 containing 1% Marvel™ was added to each well and incubated for 1 h at r.t. Plates were washed three times as before then 20 μl PBS added to each well and plates sealed with a black plate sealer.
The plates were read on an Acumen plate reader as soon as possible, measuring green fluorescence after excitation with 488 nm laser. Using this system IC50 values were generated and quality of plates was determined by control wells. Reference compounds were run each time to monitor assay performance.

PI3Kα, sequence (P42336 whole entry): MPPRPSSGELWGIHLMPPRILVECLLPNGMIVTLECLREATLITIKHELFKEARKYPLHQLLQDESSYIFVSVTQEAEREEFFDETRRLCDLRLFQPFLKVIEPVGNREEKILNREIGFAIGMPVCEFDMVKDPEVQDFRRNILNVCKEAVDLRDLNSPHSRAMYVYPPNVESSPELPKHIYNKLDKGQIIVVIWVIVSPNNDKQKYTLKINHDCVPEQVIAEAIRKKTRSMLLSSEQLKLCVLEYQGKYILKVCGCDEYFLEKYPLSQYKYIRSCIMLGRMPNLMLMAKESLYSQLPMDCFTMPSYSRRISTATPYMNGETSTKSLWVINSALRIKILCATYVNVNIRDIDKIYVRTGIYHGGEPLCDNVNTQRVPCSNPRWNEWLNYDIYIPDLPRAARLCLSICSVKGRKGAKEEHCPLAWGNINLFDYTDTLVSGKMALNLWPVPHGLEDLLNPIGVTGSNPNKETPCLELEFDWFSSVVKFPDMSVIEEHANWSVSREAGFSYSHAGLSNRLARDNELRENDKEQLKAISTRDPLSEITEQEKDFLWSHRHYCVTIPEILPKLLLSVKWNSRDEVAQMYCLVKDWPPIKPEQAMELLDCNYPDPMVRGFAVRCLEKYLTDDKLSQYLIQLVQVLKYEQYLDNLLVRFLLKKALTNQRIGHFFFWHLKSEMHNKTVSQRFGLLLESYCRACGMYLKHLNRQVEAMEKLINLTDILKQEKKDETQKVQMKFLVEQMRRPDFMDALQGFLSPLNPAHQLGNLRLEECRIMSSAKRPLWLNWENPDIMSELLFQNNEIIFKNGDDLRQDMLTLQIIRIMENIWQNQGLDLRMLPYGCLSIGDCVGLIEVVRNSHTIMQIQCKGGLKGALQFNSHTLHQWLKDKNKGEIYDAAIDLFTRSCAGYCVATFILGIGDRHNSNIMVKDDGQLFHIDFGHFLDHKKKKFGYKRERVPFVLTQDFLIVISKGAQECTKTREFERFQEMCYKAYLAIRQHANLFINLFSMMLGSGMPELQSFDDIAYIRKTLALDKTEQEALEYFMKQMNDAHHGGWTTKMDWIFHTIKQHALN
PI3Kα, sequence (P27986 2-724, further chain): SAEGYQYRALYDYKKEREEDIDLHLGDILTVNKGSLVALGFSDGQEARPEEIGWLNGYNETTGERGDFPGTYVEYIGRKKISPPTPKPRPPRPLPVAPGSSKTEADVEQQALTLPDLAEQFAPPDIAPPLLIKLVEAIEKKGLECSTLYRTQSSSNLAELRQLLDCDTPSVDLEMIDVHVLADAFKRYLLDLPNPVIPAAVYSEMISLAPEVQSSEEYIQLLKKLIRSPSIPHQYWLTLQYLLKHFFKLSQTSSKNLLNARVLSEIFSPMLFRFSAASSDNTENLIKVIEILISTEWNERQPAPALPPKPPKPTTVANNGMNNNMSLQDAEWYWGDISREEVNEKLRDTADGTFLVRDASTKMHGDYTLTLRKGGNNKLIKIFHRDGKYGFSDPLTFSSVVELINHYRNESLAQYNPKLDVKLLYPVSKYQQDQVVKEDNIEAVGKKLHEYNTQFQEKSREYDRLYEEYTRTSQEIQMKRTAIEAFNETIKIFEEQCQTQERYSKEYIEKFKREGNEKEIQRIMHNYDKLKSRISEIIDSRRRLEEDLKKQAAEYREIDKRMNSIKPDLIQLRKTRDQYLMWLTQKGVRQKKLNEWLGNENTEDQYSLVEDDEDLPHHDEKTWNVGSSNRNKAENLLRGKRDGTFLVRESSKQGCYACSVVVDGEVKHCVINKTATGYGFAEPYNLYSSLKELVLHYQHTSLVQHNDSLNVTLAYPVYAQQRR
T1 sequence (Q13315 whole entry): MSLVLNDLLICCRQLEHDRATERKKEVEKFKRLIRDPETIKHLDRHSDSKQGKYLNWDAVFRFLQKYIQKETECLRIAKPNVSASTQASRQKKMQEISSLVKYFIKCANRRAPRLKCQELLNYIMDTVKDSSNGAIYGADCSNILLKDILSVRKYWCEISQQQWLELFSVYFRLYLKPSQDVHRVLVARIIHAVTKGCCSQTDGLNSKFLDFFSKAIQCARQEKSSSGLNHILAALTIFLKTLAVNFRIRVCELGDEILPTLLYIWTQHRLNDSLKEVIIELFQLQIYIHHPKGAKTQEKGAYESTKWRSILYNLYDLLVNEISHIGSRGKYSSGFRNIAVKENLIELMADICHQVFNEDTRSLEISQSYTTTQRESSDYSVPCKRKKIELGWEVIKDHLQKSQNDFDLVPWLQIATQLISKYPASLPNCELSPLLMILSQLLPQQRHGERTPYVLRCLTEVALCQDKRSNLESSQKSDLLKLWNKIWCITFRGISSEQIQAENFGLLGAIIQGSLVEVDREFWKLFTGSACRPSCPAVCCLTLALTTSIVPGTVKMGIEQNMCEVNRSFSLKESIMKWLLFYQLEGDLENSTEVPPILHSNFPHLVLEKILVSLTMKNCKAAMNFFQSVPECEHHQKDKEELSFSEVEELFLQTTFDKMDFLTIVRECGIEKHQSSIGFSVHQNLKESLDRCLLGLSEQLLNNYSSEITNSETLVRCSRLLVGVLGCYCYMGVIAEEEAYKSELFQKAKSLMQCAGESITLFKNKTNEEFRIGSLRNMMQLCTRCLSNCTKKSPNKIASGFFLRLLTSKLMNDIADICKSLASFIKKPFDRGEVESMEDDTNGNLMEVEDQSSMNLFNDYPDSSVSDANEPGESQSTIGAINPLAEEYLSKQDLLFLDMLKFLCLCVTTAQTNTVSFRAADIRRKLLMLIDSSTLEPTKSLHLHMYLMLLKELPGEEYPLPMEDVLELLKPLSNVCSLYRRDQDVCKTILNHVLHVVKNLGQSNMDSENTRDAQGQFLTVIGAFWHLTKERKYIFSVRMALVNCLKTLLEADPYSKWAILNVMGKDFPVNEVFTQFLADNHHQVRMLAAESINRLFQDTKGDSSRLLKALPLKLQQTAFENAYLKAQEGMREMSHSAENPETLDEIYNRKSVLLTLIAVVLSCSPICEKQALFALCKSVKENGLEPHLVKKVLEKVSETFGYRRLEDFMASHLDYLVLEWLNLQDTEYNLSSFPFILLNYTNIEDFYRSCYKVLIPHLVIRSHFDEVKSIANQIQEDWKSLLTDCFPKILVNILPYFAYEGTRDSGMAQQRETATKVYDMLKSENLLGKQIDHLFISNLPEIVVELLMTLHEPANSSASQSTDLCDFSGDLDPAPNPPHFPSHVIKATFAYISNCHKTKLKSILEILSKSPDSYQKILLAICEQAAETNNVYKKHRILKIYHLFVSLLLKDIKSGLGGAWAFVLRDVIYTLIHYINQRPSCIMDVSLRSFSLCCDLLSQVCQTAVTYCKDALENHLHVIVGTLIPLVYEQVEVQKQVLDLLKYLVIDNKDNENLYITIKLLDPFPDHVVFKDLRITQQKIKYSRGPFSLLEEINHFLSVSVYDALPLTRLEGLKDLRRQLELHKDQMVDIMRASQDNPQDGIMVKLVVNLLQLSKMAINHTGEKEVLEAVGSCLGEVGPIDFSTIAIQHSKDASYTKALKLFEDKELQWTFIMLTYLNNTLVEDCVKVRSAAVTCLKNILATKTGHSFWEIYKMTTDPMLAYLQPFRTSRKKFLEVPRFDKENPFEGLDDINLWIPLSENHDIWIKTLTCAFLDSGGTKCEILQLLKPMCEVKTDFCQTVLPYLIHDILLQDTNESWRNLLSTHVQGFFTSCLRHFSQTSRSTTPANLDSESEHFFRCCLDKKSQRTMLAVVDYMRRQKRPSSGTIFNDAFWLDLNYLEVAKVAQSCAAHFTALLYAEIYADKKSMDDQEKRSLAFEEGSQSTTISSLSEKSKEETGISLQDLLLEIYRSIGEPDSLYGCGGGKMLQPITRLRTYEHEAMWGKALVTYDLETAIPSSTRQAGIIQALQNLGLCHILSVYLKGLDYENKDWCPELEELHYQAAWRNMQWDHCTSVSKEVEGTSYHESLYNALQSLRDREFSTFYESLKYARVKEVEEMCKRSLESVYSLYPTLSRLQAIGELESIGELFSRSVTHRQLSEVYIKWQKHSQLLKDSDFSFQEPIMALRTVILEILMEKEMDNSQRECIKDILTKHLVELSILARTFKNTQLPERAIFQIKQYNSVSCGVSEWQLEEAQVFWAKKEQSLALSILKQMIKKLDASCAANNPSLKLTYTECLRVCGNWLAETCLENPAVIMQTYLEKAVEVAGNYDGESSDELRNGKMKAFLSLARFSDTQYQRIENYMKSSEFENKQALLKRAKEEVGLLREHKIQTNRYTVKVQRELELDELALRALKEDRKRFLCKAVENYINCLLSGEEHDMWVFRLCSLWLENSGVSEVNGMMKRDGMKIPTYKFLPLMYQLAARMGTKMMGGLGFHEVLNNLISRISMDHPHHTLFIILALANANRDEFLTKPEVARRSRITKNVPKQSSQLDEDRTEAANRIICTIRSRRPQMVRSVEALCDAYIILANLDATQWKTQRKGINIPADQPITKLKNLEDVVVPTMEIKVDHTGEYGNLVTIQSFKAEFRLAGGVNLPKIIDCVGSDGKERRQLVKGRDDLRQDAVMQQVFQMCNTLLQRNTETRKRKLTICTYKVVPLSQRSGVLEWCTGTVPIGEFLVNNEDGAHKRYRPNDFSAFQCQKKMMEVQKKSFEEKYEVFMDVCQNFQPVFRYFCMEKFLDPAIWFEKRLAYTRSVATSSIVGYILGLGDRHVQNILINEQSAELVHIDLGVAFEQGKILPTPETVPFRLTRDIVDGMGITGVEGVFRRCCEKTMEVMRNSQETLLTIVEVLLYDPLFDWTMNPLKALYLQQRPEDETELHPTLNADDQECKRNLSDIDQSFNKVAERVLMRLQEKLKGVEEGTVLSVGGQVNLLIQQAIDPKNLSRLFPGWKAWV

As for `CO[C@H]1CC[C@H](n2c(=O)n(C)c3cnc4ccc(-c5ccc(N6CCC(N(C)C)CC6)nc5)cc4c32)C1` (single isomer, unassigned) [Example 33, 8-[6-[4-(dimethylamino)-1-piperidyl]-3-pyridyl]-1-[trans-3-methoxycyclopentyl]-3-methyl-imidazo[4,5-c]quinolin-2-one], the IC50 in assay [1] is 0.332 nM; in assay [2] it was 1090 nM; in assay [3], greater than 25700 nM.
In the case of `CC(C)n1c(=O)n(C)c2cnc3cc(F)c(-c4ccc(N5CCC(N(C)C)CC5)nc4)cc3c21` [Example 3, 8-[6-[4-(dimethylamino)-1-piperidyl]-3-pyridyl]-7-fluoro-1-isopropyl-3-methyl-imidazo[4,5-c]quinolin-2-one], the IC50 in assay [2] was 19300 nM; in assay [3] it was greater than 30000 nM.
As for `CC(C)n1c(=O)n(C)c2cnc3ccc(-c4ccc(N5CC(N(C)C)C5)nc4)cc3c21` [Example 4, 8-[6-[3-(dimethylamino)azetidin-1-yl]-3-pyridyl]-1-isopropyl-3-methyl-imidazo[4,5-c]quinolin-2-one], the IC50 in assay [2] was 243 nM.
As for `CN(C)C1CCN(c2ccc(-c3ccc4ncc5c(c4c3)n([C@@H]3CCCOC3)c(=O)n5C)cn2)CC1` [Example 34, 8-[6-[4-(dimethylamino)-1-piperidyl]-3-pyridyl]-3-methyl-1-[(3R)-tetrahydropyran-3-yl]imidazo[4,5-c]quinolin-2-one], the IC50 was 2000 nM in assay [4], 0.395 nM in assay [1] and greater than 30000 nM in assay [3].
`CN(C)C1CCN(c2ccc(-c3ccc4ncc5c(c4c3)n([C@H]3CCCOC3)c(=O)n5C)cn2)CC1` [Example 35, 8-[6-[4-(dimethylamino)-1-piperidyl]-3-pyridyl]-3-methyl-1[(3S)-tetrahydropyran-3-yl]imidazo[4,5-c]quinolin-2-one]: the IC50 was 16500 nM in assay [4], 1.4 nM in assay [1] and greater than 30000 nM in assay [3].
In the same order, the values of `CN(C)C1CCN(c2ccc(-c3cc4c(cc3F)ncc3c4n([C@@H]4CCCOC4)c(=O)n3C)cn2)CC1` [Example 40, 8-[6-[4-(dimethylamino)-1-piperidyl]-3-pyridyl]-7-fluoro-3-methyl-1-[(3R)-tetrahydropyran-3-yl]imidazo[4,5-c]quinolin-2-one] are 22100 nM, 3.24 nM and greater than 30000 nM.
